What was measured:
[1] = biological target: T1, Kallikrein-2 (Homo sapiens, UniProt P20151); assay: Mixed-type inhibition of human tissue kallikrein-2 expressed in baculovirus infected insect cells using Abz-KLRSSQ-EDDnp as substrate preincubated for 10 mins followed by substrate addition by Lineweaver-Burk plot analysis
T1 sequence (P20151 whole entry): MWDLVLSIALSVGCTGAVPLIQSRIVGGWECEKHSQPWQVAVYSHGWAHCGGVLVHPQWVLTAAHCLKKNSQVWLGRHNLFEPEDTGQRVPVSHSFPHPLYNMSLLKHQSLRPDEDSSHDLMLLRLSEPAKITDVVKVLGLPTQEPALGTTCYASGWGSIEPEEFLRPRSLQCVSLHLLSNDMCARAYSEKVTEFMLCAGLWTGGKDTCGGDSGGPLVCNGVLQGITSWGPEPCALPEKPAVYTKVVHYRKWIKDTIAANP

[2] = biological target: T2, Kallikrein-1 (Homo sapiens, UniProt P06870); assay: Inhibition of human tissue kallikrein-1 expressed in baculovirus infected insect cells using Abz-KLRSSQ-EDDnp as substrate preincubated for 10 mins followed by substrate addition by FRET assay
[3] = biological target: T1, Kallikrein-2; assay: Inhibition of human tissue kallikrein-2 expressed in baculovirus infected insect cells using Abz-KLRSSQ-EDDnp as substrate preincubated for 10 mins followed by substrate addition by FRET assay
[4] = biological target: T3, Prostate-specific antigen (Homo sapiens, UniProt P07288); assay: Inhibition of human tissue kallikrein-3 expressed in baculovirus infected insect cells using Abz-KLYSSQ-EDDnp as substrate preincubated for 10 mins followed by substrate addition by FRET assay
T3 sequence (P07288 whole entry): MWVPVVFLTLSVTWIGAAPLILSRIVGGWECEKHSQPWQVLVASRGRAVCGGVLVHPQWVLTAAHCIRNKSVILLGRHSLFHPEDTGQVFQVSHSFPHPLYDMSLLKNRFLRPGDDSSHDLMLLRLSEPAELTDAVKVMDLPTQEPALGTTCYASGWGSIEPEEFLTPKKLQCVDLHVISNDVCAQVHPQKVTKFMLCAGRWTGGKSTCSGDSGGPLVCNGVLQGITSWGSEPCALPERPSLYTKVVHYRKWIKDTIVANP

[5] = biological target: T4, Kallikrein-5 (Homo sapiens, UniProt Q9Y337); assay: Inhibition of human tissue kallikrein-5 expressed in baculovirus infected insect cells using Abz-KLRSSQ-EDDnp as substrate preincubated for 10 mins followed by substrate addition by FRET assay
T4 sequence (Q9Y337 whole entry): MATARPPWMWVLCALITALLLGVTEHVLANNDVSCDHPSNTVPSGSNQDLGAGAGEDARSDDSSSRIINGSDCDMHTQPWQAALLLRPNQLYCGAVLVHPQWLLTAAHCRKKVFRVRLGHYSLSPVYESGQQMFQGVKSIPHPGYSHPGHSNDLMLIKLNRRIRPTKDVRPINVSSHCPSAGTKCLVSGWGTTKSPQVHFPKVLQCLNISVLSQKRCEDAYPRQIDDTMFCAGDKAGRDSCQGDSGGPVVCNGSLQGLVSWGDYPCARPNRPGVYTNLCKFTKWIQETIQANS

[6] = biological target: Kallikrein-6 (Homo sapiens, UniProt Q92876); assay: Inhibition of human tissue kallikrein-6 expressed in baculovirus infected insect cells using Abz-KLRSSQ-EDDnp as substrate preincubated for 10 mins followed by substrate addition by FRET assay
[7] = biological target: Kallikrein-7 (Homo sapiens, UniProt P49862); assay: Inhibition of human tissue kallikrein-7 expressed in baculovirus infected insect cells using Abz-KLYSSQ-EDDnp as substrate preincubated for 10 mins followed by substrate addition by FRET assay
[8] = biological target: T2, Kallikrein-1; assay: Mixed-type inhibition of human tissue kallikrein-1 expressed in baculovirus infected insect cells using Abz-KLRSSQ-EDDnp as substrate preincubated for 10 mins followed by substrate addition by Lineweaver-Burk plot analysis

T2 sequence (P06870 whole entry): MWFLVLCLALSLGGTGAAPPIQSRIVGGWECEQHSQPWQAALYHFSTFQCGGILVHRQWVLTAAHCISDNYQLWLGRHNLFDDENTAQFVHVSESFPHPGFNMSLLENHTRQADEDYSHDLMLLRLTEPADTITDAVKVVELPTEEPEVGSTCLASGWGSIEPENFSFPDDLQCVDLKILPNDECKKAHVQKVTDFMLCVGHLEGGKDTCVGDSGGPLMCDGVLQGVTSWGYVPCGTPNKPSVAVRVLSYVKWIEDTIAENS
Sequence of Kallikrein-7 (P49862 whole entry): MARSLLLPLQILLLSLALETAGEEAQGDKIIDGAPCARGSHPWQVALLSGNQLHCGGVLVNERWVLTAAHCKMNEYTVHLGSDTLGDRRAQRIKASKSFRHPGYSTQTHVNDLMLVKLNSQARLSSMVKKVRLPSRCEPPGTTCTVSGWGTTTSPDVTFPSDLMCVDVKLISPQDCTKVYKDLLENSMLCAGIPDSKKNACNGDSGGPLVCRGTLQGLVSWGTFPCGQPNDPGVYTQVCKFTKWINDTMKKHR

- Ki [1]: 1.6 µM
- IC50 [2]: 5.7 µM
- IC50 [3]: 3.2 µM
- IC50 [4]: 13 µM
- IC50 [5]: 12.5 µM
- IC50 [6]: 13.5 µM
- IC50 [7]: 15 µM
- Ki [8]: 3.6 µM
SMILES: O=C1CC(c2ccc(O)c(O)c2)Oc2c1c(O)cc(O)c2[C@@H]1C(=O)c2c(O)cc(O)cc2O[C@H]1c1ccc(O)cc1 (stereo partly drawn) [FUKUGETIN]
